The results in this text go back to US8980888B2, “Pyrazole derivative” (Mochida Pharmaceutical Co., Ltd., priority 2013, dated 2015).

Structures are written as SMILES.

As a reminder, the IC50 is the concentration needed to halve the response being measured. Low readings indicate greater potency in that assay, high ones weaker potency in that assay.

T1 sequence (Q9Y233 whole entry): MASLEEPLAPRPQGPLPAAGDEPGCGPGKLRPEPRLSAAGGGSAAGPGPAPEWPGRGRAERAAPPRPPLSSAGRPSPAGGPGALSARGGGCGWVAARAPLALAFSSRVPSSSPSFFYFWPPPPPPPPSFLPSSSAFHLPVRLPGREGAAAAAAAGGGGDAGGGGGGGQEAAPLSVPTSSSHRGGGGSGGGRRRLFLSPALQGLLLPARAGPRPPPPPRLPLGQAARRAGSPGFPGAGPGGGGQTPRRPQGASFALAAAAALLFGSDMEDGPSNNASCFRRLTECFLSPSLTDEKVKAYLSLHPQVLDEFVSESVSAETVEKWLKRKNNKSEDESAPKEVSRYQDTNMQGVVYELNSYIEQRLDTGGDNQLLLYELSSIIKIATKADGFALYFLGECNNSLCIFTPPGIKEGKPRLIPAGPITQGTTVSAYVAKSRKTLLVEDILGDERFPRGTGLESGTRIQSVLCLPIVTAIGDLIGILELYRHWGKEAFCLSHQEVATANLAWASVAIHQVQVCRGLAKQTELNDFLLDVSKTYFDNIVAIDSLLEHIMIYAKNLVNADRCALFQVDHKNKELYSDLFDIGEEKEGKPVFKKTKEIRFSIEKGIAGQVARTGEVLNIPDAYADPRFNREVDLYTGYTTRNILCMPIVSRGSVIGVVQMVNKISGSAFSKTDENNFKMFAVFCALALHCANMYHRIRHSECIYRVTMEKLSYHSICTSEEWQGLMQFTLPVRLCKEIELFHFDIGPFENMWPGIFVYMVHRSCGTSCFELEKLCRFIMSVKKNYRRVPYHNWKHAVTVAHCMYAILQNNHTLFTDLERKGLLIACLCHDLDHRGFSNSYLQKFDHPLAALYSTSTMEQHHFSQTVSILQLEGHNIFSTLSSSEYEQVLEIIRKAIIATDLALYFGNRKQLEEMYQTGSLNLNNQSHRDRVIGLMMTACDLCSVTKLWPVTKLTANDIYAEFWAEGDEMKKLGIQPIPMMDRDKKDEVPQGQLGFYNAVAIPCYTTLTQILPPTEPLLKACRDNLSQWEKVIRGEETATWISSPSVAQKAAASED

This assay has as its target T1, Human PDE10 (Homo sapiens, UniProt Q9Y233).
T1 construct: purchased BPA Bioscience (so in the source)
As to the kind of experiment: Human PDE10 inhibitory effect (IMAP TR-FRET enzyme inhibition assay). To be noted: PDE10 inhibitory activity, cAMP substrate. Format: biochemical. Here is the method: (Evaluation of Enzyme Inhibitory Activity: Human PDE10 Inhibitory Effect)
IMAP TR-FRET Phosphodiersterase Evaluation Assay Kit (Molecular Device) was used for the measurement. Ten μL of a diluted test compound having each concentration and 5 μL of the enzyme PDE10 (BPA Bioscience) that had been diluted to 2 ng/mL with 1×IMAP Reaction Buffer (prepared with 5× included with the kit, 10 mM Tris-HCl, pH=7.2, 10 mM MgCl2, 0.05% NaN3, and 0.1% BSA) containing 0.1% BSA were added to a 384-well plate (Corning). The obtained mixture was then pre-incubated at room temperature for 5 minutes. Thereafter, 5 μL of cAMP substrate solution which was included with the kit and diluted to 400 nM with 1×IMAP Reaction Buffer containing 0.1% BSA, was added to the reaction solution, and the obtained mixture was reacted at room temperature for 60 minutes. Thereafter, 60 μL of an IMAP TR-FRET Binding solution included with the kit was further added to the reaction solution, and the obtained mixture was then left for 3 hours or more. Subsequently, using ARVO SX (PerkinElmer), the fluorescent intensity of Terbium (Emission=490 nm) and TR-FRET (Emission=520 nm) in the reaction solution were measured at an excitation wavelength of 340 nm, so as to calculate the amount of the generated 5′-AMP. The count of a well to which a solvent had been added instead of the test compound was set at 0%, and the count of a well to which the enzyme PDE10 had not been added was set at 100%. Thus, the inhibitory activity of each test compound was calculated.
The PDE10 inhibitory activity of the test compound was indicated with an IC50 value. […] The test compounds are shown in Table 3 (Table 3-1 and Table 3-2).
A general note: TR-FRET usually uses a lanthanide donor and a delayed reading to cut background.
`C[C@H]1CCCN1c1nc2cc(NC(=O)c3c(-c4cccc(C(F)(F)F)n4)cnn3C)ccn2n1` [Example 4.3, (S)-1-methyl-N-(2-(2-methylpyrrolidin-1-yl)-[1,2,4]triazolo[1,5-a]pyridin-7-yl)-4-(6-(trifluoromethyl)pyridin-2-yl)-1H-pyrazole-5-carboxamide] displayed an IC50 below 5 nM.
In turn, `C[C@H]1CCCN1c1nc2cc(NC(=O)c3c(-c4nc(C(F)(F)F)cs4)cnn3C)ccn2n1` [Example 4.10] gave an IC50 below 5 nM.
As for `Cc1cc(C)nc(-c2cnn(C)c2C(=O)Nc2ccn3nc(N4CC[C@H](F)C4)nc3c2)c1` [Example 4.20, (S)-4-(4,6-dimethylpyridin-2-yl)-N-(2-(3-fluoropyrrolidin-1-yl)-[1,2,4]triazolo[1,5-a]pyridin-7-yl)-1-methyl-1H-pyrazole-5-carboxamide], the IC50 is below 5 nM.
Next, `Cc1ccnc(-c2cnn(C)c2C(=O)Nc2ccn3nc(N4CCCC4)nc3c2)c1` [Example 4.30, 1-methyl-4-(4-methylpyridin-2-yl)-N-(2-(pyrrolidin-1-yl)-[1,2,4]triazolo[1,5-a]pyridin-7-yl)-1H-pyrazole-5-carboxamide]: below 5 nM; `C[C@@H]1CN(c2nc3cc(NC(=O)c4c(-c5nc(C(F)F)c(Cl)s5)cnn4C)ccn3n2)C[C@H](C)O1` [Example 4.36, 4-(5-chloro-4-(difluoromethyl)thiazol-2-yl)-N-(2-((2S,6R)-2,6-dimethylmorpholino)-[1,2,4]triazolo[1,5-a]pyridin-7-yl)-1-methyl-1H-pyrazole-5-carboxamide]: 5 to 100 nM.
In turn, `Cc1sc(-c2cnn(C)c2C(=O)NC2CCn3nc(-c4ccccc4)nc3C2)nc1C(F)F` (stereo not drawn) [Example 5.1, 4-(4-(difluoromethyl)-5-methylthiazol-2-yl)-1-methyl-N-(2-phenyl-5,6,7,8-tetrahydro-[1,2,4]triazolo[1,5-a]pyridin-7-yl)-1H-pyrazole-5-carboxamide] displayed an IC50 below 5 nM.
`Cn1ncc(-c2nc(C(F)F)cs2)c1C(=O)NC1CCn2nc(-c3ccc(F)cc3)nc2C1` (stereo not drawn) [Example 5.2, 4-(4-(difluoromethyl)thiazol-2-yl)-N-(2-(4-fluorophenyl)-5,6,7,8-tetrahydro-[1,2,4]triazolo[1,5-a]pyridin-7-yl)-1-methyl-1H-pyrazole-5-carboxamide] had an IC50 of 5 to 100 nM.
For `Cn1ncc(-c2nc(C(F)F)c(Cl)s2)c1C(=O)NC1CCn2nc(-c3ccc(F)cc3)nc2C1` (stereo not drawn) [Example 5.3, 4-(5-chloro-4-(difluoromethyl)thiazol-2-yl)-N-(2-(4-fluorophenyl)-5,6,7,8-tetrahydro-[1,2,4]triazolo[1,5-a]pyridin-7-yl)-1-methyl-1H-pyrazole-5-carboxamide] the value was below 5 nM; for `Cc1nc(-c2cnn(C)c2C(=O)NC2CCn3nc(-c4ccccc4)nc3C2)sc1C` (stereo not drawn) [Example 5.4, 4-(4,5-dimethylthiazol-2-yl)-1-methyl-N-(2-phenyl-5,6,7,8-tetrahydro-[1,2,4]triazolo[1,5-a]pyridin-7-yl)-1H-pyrazole-5-carboxamide], below 5 nM; for `Cn1ncc(-c2nc(C(F)F)c(C3CC3)s2)c1C(=O)NC1CCn2nc(-c3ccccc3)nc2C1` (stereo not drawn) [Example 5.8, 4-(5-cyclopropyl-4-(difluoromethyl)thylthiazol-2-yl)-1-methyl-N-(2-phenyl-5,6,7,8-tetrahydro-[1,2,4]triazolo[1,5-a]pyridin-7-yl)-1H-pyrazole-5-carboxamide], 5 to 100 nM.
For `Cn1ncc(-c2nc(C(F)(F)F)cs2)c1C(=O)NC1CCn2nc(-c3ccccc3)nc2C1` (stereo not drawn) [Example 5.9] the value was 5 to 100 nM; for `Cn1ncc(-c2nc(C#N)cs2)c1C(=O)NC1CCn2nc(-c3ccccc3)nc2C1` (stereo not drawn) [Example 5.10, 4-(4-cyanothiazol-2-yl)-1-methyl-N-(2-phenyl-5,6,7,8-tetrahydro-[1,2,4]triazolo[1,5-a]pyridin-7-yl)-1H-pyrazole-5-carboxamide], 5 to 100 nM; for `CCOCCc1sc(-c2cnn(C)c2C(=O)NC2CCn3nc(-c4ccccc4)nc3C2)nc1C` (stereo not drawn) [Example 5.11, 4-(5-(2-ethoxyethyl)-4-methylthiazol-2-yl)-1-methyl-N-(2-phenyl-5,6,7,8-tetrahydro-[1,2,4]triazolo[1,5-a]pyridin-7-yl)-1H-pyrazole-5-carboxamide], 5 to 100 nM.
The compound `CCc1nnc(-c2cnn(C)c2C(=O)NC2CCn3nc(-c4ccccc4)nc3C2)s1` (stereo not drawn) [Example 5.12, 4-(5-ethyl-1,3,4-thiadiazol-2-yl)-1-methyl-N-(2-phenyl-5,6,7,8-tetrahydro-[1,2,4]triazolo[1,5-a]pyridin-7-yl)-1H-pyrazole-5-carboxamide] registered an IC50 of 5 to 100 nM.
For `Cc1nc(-c2cnn(C)c2C(=O)NC2CCn3nc(-c4ccccc4)nc3C2)c(Br)s1` (stereo not drawn) [Example 5.13, 4-(5-bromo-2-methylthiazol-4-yl)-1-methyl-N-(2-phenyl-5,6,7,8-tetrahydro-[1,2,4]triazolo[1,5-a]pyridin-7-yl)-1H-pyrazole-5-carboxamide] the value was 5 to 100 nM; for `Cc1cnc(C)c(-c2cnn(C)c2C(=O)NC2CCn3nc(-c4ccccc4)nc3C2)n1` (stereo not drawn) [Example 5.14, 4-(3,6-dimethylpyrazin-2-yl)-1-methyl-N-(2-phenyl-5,6,7,8-tetrahydro-[1,2,4]triazolo[1,5-a]pyridin-7-yl)-1H-pyrazole-5-carboxamide], 5 to 100 nM; for `Cc1nsc(-c2cnn(C)c2C(=O)NC2CCn3nc(-c4ccccc4)nc3C2)n1` (stereo not drawn) [Example 5.15, 1-methyl-4-(3-methyl-1,2,4-thiadiazol-5-yl)-N-(2-phenyl-5,6,7,8-tetrahydro-[1,2,4]triazolo[1,5-a]pyridin-7-yl)-1H-pyrazole-5-carboxamide], 5 to 100 nM.
The compound `COC[C@H]1CCCN1c1nc2n(n1)CCC(NC(=O)c1c(-c3nc(C(F)F)cs3)cnn1C)C2` (stereo partly drawn) [Example 5.16, 4-(4-(difluoromethyl)thiazol-2-yl)-N-(2-((R)-2-(methoxymethyl)pyrrolidin-1-yl)-5,6,7,8-tetrahydro-[1,2,4]triazolo[1,5-a]pyridin-7-yl)-1-methyl-1H-pyrazole-5-carboxamide] returned an IC50 of 5 to 100 nM.
Next, `Cc1csc(-c2cnn(C)c2C(=O)NC2CCn3nc(-c4ccccc4)nc3C2)n1` (stereo not drawn) [Example 5.18, 1-methyl-4-(4-methylthiazol-2-yl)-N-(2-phenyl-5,6,7,8-tetrahydro-[1,2,4]triazolo[1,5-a]pyridin-7-yl)-1H-pyrazole-5-carboxamide]: 5 to 100 nM.
Next, `Cc1cccc(-c2cnn(C)c2C(=O)NC2CCn3nc(-c4ccccc4)nc3C2)n1` (stereo not drawn) [Example 5.19, 1-methyl-4-(6-methylpyridin-2-yl)-N-(2-phenyl-5,6,7,8-tetrahydro-[1,2,4]triazolo[1,5-a]pyridin-7-yl)-1H-pyrazole-5-carboxamide]: 5 to 100 nM.
In turn, `Cc1ccnc(-c2cnn(C)c2C(=O)NC2CCn3nc(-c4ccccc4)nc3C2)c1` (stereo not drawn) [Example 5.20, 1-methyl-4-(4-methylpyridin-2-yl)-N-(2-phenyl-5,6,7,8-tetrahydro-[1,2,4]triazolo[1,5-a]pyridin-7-yl)-1H-pyrazole-5-carboxamide] came in with a concentration for half-maximal inhibition (IC50) of 5 to 100 nM.
Next, `Cn1ncc(-c2cccc(C(F)(F)F)n2)c1C(=O)NC1CCn2nc(-c3ccccc3)nc2C1` (stereo not drawn) [Example 5.21, 1-methyl-N-(2-phenyl-5,6,7,8-tetrahydro-[1,2,4]triazolo[1,5-a]pyridin-7-yl)-4-(6-(trifluoromethyl)pyridin-2-yl)-1H-pyrazole-5-carboxamide]: 5 to 100 nM.
For `Cc1cccnc1-c1cnn(C)c1C(=O)NC1CCn2nc(-c3ccccc3)nc2C1` (stereo not drawn) [Example 5.22, 1-methyl-4-(3-methylpyridin-2-yl)-N-(2-phenyl-5,6,7,8-tetrahydro-[1,2,4]triazolo[1,5-a]pyridin-7-yl)-1H-pyrazole-5-carboxamide] the value was 5 to 100 nM.
For `Cn1ncc(-c2cc(F)ccn2)c1C(=O)NC1CCn2nc(-c3ccccc3)nc2C1` (stereo not drawn) [Example 5.23, 4-(4-fluoropyridin-2-yl)-1-methyl-N-(2-phenyl-5,6,7,8-tetrahydro-[1,2,4]triazolo[1,5-a]pyridin-7-yl)-1H-pyrazole-5-carboxamide] the value was 5 to 100 nM; for `Cn1ncc(-c2ccc(F)cn2)c1C(=O)NC1CCn2nc(-c3ccccc3)nc2C1` (stereo not drawn) [Example 5.24, 4-(5-fluoropyridin-2-yl)-1-methyl-N-(2-phenyl-5,6,7,8-tetrahydro-[1,2,4]triazolo[1,5-a]pyridin-7-yl)-1H-pyrazole-5-carboxamide], 5 to 100 nM.
Turning to `COc1ccnc(-c2cnn(C)c2C(=O)NC2CCn3nc(-c4ccccc4)nc3C2)c1` (stereo not drawn) [Example 5.25, 4-(4-methoxypyridin-2-yl)-1-methyl-N-(2-phenyl-5,6,7,8-tetrahydro-[1,2,4]triazolo[1,5-a]pyridin-7-yl)-1H-pyrazole-5-carboxamide], the IC50 is 5 to 100 nM.
On to `Cc1ccc(-c2cnn(C)c2C(=O)NC2CCn3nc(-c4ccccc4)nc3C2)nc1` (stereo not drawn) [Example 5.26, 1-methyl-4-(5-methylpyridin-2-yl)-N-(2-phenyl-5,6,7,8-tetrahydro-[1,2,4]triazolo[1,5-a]pyridin-7-yl)-1H-pyrazole-5-carboxamide], for which the IC50 was 5 to 100 nM.
